Results taken from ChEMBL document CHEMBL5505992, “Novel membrane-targeting isoxanthohumol-amine conjugates for combating methicillin-resistant Staphylococcus aureus (MRSA) infections” (Eur J Med Chem, 2024).
≈ marks a conversion by molar mass, not a printed value.

Assays:
Staphylococcus aureus [1] = test: Antibacterial activity against Staphylococcus aureus ATCC 29213 measured after 16 to 18 hrs by CLSI method; type: functional; settings: time 16-18 hrs
Staphylococcus aureus [2] = test: Antibacterial activity against methicillin-resistant Staphylococcus aureus clinical isolate MRSA-11 measured after 16 to 18 hrs by CLSI method; type: functional; settings: time 16-18 hrs
Staphylococcus aureus [3] = test: Antibacterial activity against methicillin-resistant Staphylococcus aureus clinical isolate MRSA-13 measured after 16 to 18 hrs by CLSI method; type: functional; settings: time 16-18 hrs
Staphylococcus aureus [4] = test: Antibacterial activity against methicillin-resistant Staphylococcus aureus clinical isolate MRSA-14 measured after 16 to 18 hrs by CLSI method; type: functional; settings: time 16-18 hrs
Staphylococcus aureus [5] = test: Antibacterial activity against methicillin-resistant Staphylococcus aureus clinical isolate MRSA-16 measured after 16 to 18 hrs by CLSI method; type: functional; settings: time 16-18 hrs
Staphylococcus aureus [6] = test: Antibacterial activity against methicillin-resistant Staphylococcus aureus clinical isolate MRSA-17 measured after 16 to 18 hrs by CLSI method; type: functional; settings: time 16-18 hrs
Staphylococcus aureus [7] = test: Antibacterial activity against methicillin-resistant Staphylococcus aureus clinical isolate MRSA-18 measured after 16 to 18 hrs by CLSI method; type: functional; settings: time 16-18 hrs
Staphylococcus aureus [8] = test: Antibacterial activity against methicillin-resistant Staphylococcus aureus clinical isolate MRSA-20 measured after 16 to 18 hrs by CLSI method; type: functional; settings: time 16-18 hrs
Staphylococcus aureus [9] = test: Antibacterial activity against methicillin-resistant Staphylococcus aureus clinical isolate MRSA-21 measured after 16 to 18 hrs by CLSI method; type: functional; settings: time 16-18 hrs
Staphylococcus aureus [10] = test: Antibacterial activity against methicillin-resistant Staphylococcus aureus clinical isolate MRSA-22 measured after 16 to 18 hrs by CLSI method; type: functional; settings: time 16-18 hrs
Staphylococcus aureus [11] = test: Antibacterial activity against methicillin-resistant Staphylococcus aureus clinical isolate MRSA-23 measured after 16 to 18 hrs by CLSI method; type: functional; settings: time 16-18 hrs
Escherichia coli = test: Antibacterial activity against Escherichia coli ATCC25922 measured after 16 to 18 hrs by CLSI method; type: functional; settings: time 16-18 hrs
[12] = Hemolytic activity in sheep erythrocytes incubated for 1 hr by absorbance based analysis; type: toxicity, cell-based, Ovis aries, Erythrocyte
[13] = Selectivity index, ratio of HC50 for hemolytic activity in sheep erythrocytes to MIC for antibacterial activity against Staphylococcus aureus ATCC 29213; type: toxicity, cell-based; settings: read-out: Selectivity Index

| SMILES | MIC (Staphylococcus aureus [1]) [mg/L] | MIC (Staphylococcus aureus [2]) [mg/L] | MIC (Staphylococcus aureus [3]) [mg/L] | MIC (Staphylococcus aureus [4]) [mg/L] | MIC (Staphylococcus aureus [5]) [mg/L] | MIC (Staphylococcus aureus [6]) [mg/L] | MIC (Staphylococcus aureus [7]) [mg/L] | MIC (Staphylococcus aureus [8]) [mg/L] | MIC (Staphylococcus aureus [9]) [mg/L] | MIC (Staphylococcus aureus [10]) [mg/L] | MIC (Staphylococcus aureus [11]) [mg/L] | MIC (Escherichia coli) [mg/L] | HC50 at 1 h [12] [µg/mL] | selectivity ratio [13] |
| --- | --- | --- | --- | --- | --- | --- | --- | --- | --- | --- | --- | --- | --- | --- |
| CCCN(CCC)CCCOc1ccc(C2CC(=O)c3c(OC)cc(OCCCN(CCC)CCC)c(CC=C(C)C)c3O2)cc1 (centres undefined) | 16 (≈ 25.1 µM) | 16 (≈ 25.1 µM) | 8 (≈ 12.6 µM) | 16 (≈ 25.1 µM) | 8 (≈ 12.6 µM) | 8 (≈ 12.6 µM) | 16 (≈ 25.1 µM) | 16 (≈ 25.1 µM) | 16 (≈ 25.1 µM) | 16 (≈ 25.1 µM) | 16 (≈ 25.1 µM) | > 128 | > 1280 | > 80 |
| COc1cc(OCCCCCN2CCCCC2)c(CC=C(C)C)c2c1C(=O)CC(c1ccc(OCCCCCN3CCCCC3)cc1)O2 (centres undefined) | 8 (≈ 12.1 µM) | 8 (≈ 12.1 µM) | 8 (≈ 12.1 µM) | 8 (≈ 12.1 µM) | 8 (≈ 12.1 µM) | 4 (≈ 6.05 µM) | 8 (≈ 12.1 µM) | 8 (≈ 12.1 µM) | 8 (≈ 12.1 µM) | 8 (≈ 12.1 µM) | 8 (≈ 12.1 µM) | > 128 | 151 | 18.9 |
| CCCC[N+](C)(CCCC)CCCCOc1ccc(C2CC(=O)c3c(OC)cc(OCCCC[N+](C)(CCCC)CCCC)c(CC=C(C)C)c3O2)cc1.[I-].[I-] (centres undefined) | 0.5 | 0.5 | 0.5 | 0.5 | 0.25 | 0.25 | 0.5 | 0.5 | 0.5 | 1 | 0.5 | 32 | > 1280 | > 2640 |
| COc1cc(OCCCN2CCN(C)CC2)c(CC=C(C)C)c2c1C(=O)CC(c1ccc(OCCCN3CCN(C)CC3)cc1)O2 (centres undefined) | 64 (≈ 101 µM) | 32 (≈ 50.4 µM) | 64 (≈ 101 µM) | 64 (≈ 101 µM) | 64 (≈ 101 µM) | 32 (≈ 50.4 µM) | 64 (≈ 101 µM) | 64 (≈ 101 µM) | 32 (≈ 50.4 µM) | 32 (≈ 50.4 µM) | 64 (≈ 101 µM) | > 128 | > 1280 | > 20 |
| COc1cc(OCCCCN2CCC(C)CC2)c(CC=C(C)C)c2c1C(=O)CC(c1ccc(OCCCCN3CCC(C)CC3)cc1)O2 (centres undefined) | 16 (≈ 24.2 µM) | 16 (≈ 24.2 µM) | 8 (≈ 12.1 µM) | 16 (≈ 24.2 µM) | 8 (≈ 12.1 µM) | 8 (≈ 12.1 µM) | 16 (≈ 24.2 µM) | 16 (≈ 24.2 µM) | 8 (≈ 12.1 µM) | 8 (≈ 12.1 µM) | 16 (≈ 24.2 µM) | > 128 | > 640 | > 40 |
| COc1cc(OCCCN2CCC(C)CC2)c(CC=C(C)C)c2c1C(=O)CC(c1ccc(OCCCN3CCC(C)CC3)cc1)O2 (centres undefined) | 16 (≈ 25.3 µM) | 16 (≈ 25.3 µM) | 16 (≈ 25.3 µM) | 16 (≈ 25.3 µM) | 16 (≈ 25.3 µM) | 16 (≈ 25.3 µM) | 16 (≈ 25.3 µM) | 16 (≈ 25.3 µM) | 16 (≈ 25.3 µM) | 16 (≈ 25.3 µM) | 32 (≈ 50.6 µM) | > 128 | > 1280 | > 80 |
| COc1cc(OCCCN2CCCC(C)C2)c(CC=C(C)C)c2c1C(=O)CC(c1ccc(OCCCN3CCCC(C)C3)cc1)O2 (centres undefined) | 16 (≈ 25.3 µM) | 32 (≈ 50.6 µM) | 16 (≈ 25.3 µM) | 16 (≈ 25.3 µM) | 16 (≈ 25.3 µM) | 8 (≈ 12.6 µM) | 16 (≈ 25.3 µM) | 16 (≈ 25.3 µM) | 32 (≈ 50.6 µM) | 16 (≈ 25.3 µM) | 32 (≈ 50.6 µM) | > 128 | > 1280 | > 80 |
| CCCCN(CCCC)CCCOc1ccc(C2CC(=O)c3c(OC)cc(OCCCN(CCCC)CCCC)c(CC=C(C)C)c3O2)cc1 (centres undefined) | 8 (≈ 11.5 µM) | 8 (≈ 11.5 µM) | 8 (≈ 11.5 µM) | 4 (≈ 5.77 µM) | 4 (≈ 5.77 µM) | 4 (≈ 5.77 µM) | 8 (≈ 11.5 µM) | 8 (≈ 11.5 µM) | 8 (≈ 11.5 µM) | 4 (≈ 5.77 µM) | 8 (≈ 11.5 µM) | > 128 | 810 | 101 |
| COc1cc(OCCCCN2CCCC(C)C2)c(CC=C(C)C)c2c1C(=O)CC(c1ccc(OCCCCN3CCCC(C)C3)cc1)O2 (centres undefined) | 16 (≈ 24.2 µM) | 8 (≈ 12.1 µM) | 8 (≈ 12.1 µM) | 8 (≈ 12.1 µM) | 8 (≈ 12.1 µM) | 8 (≈ 12.1 µM) | 16 (≈ 24.2 µM) | 8 (≈ 12.1 µM) | 16 (≈ 24.2 µM) | 8 (≈ 12.1 µM) | 16 (≈ 24.2 µM) | > 128 | 120 | > 7.5 |
| COc1cc(OCCCCN2CCSCC2)c(CC=C(C)C)c2c1C(=O)CC(c1ccc(OCCCCN3CCSCC3)cc1)O2 (centres undefined) | 64 (≈ 95.7 µM) | > 128 | > 128 | > 128 | > 128 | > 128 | > 128 | > 128 | > 128 | > 128 | > 128 | > 128 | > 640 | > 10 |
| COc1cc(OCCCCN2CCN(C)CC2)c(CC=C(C)C)c2c1C(=O)CC(c1ccc(OCCCCN3CCN(C)CC3)cc1)O2 (centres undefined) | 32 (≈ 48.3 µM) | 32 (≈ 48.3 µM) | 32 (≈ 48.3 µM) | 32 (≈ 48.3 µM) | 32 (≈ 48.3 µM) | 16 (≈ 24.1 µM) | 32 (≈ 48.3 µM) | 32 (≈ 48.3 µM) | 32 (≈ 48.3 µM) | 32 (≈ 48.3 µM) | 32 (≈ 48.3 µM) | > 128 | > 1280 | > 40 |
